# In US8227408B2, “Leptin as an anti-amyloidogenic biologic and methods for delaying the onset and reducing Alzheimer's disease-like pathology” (Neurotez, Inc., priority 2005, dated 2012):
# What was measured:
# [1] = test system: SY5Y cells; test: 125I-Aβ uptake by SY5Y cells (apoE-dependent); assay type: cell-based, human
# Description: Preparation of ApoE and binding with ^125I-Aβ. ApoE was isolated from the conditioned media of human embryonic kidney (HEK-293) cells stably-transfected with human apoE (having the ε3 allele or the ε4 allele) cDNA (Tezapsidis et al., FASEB J. 17:1322-1324 (2003)). These preparations, while usually poor in lipid, are fully functional for uptake experiments. ApoE then was pre-incubated with ^125I-Aβ overnight at 37° C. (Aβ/ApoE: 1/50 w/w) as described (Tezapsidis et al., FASEB J. 17:1322-1324 (2003)).
# Aβ-uptake by SY5Y cells. Human ^125I-Aβ (iodinated at Tyr-10, Amersham Biosciences, IM 294) uptake was measured following addition of 0.1 nM ^125I-Aβ40 (SEQ ID NO: 4) to confluent SY5Y cells (60,000 cpm/ml) in the presence or absence of 100 ng/ml or 400 ng/ml leptin also included in a 24 h pre-incubation period. ^125I-Aβ was either added alone or was previously incubated with apoε3. In controls, Receptor Associated Protein (“RAP”, 1 μM) was added together with Aβ or the Aβ/apoE complex. RAP is an antagonist of a number of lipoprotein receptors (LaDu et al., Neurochem Int. 39:427-34 (2001)). After 24 h, the media were collected and subjected to scintillation counting for γ-Iradiation (Kang et al., 2000. J Clin Invest. 106:1159-66 (2000)). The amount of radioactivity was measured in both the trichloroacetic acid (10%) TCA pellets (representing intact Aβ) and the corresponding supernatants (representing degraded Aβ). 96.5±8.2% (mean±s.e.m., n=4 experiments, triplicate determinations) of the radioactivity found in the medium could be recovered in the TCA pellet and represented intact or oligomeric Aβ (not shown), when Aβ was pre-incubated with apoE.
# The amount of TCA-precipitable radioactivity in the soluble fraction of cell lysates was compared to that in the total lysates, the ratio of which was typically about 0.8 to about 0.9 (not shown), to further verify that radioactivity was reduced in the media as a reflection of Aβ uptake by the cells, rather than due to non-specific binding to the extracellular surface of membranes or oligomerization/aggregation of Aβ.
# In panel (a), Aβ uptake was measured in SY5Y cells following their treatment at 0 ng/ml, 100 ng/ml or 400 ng/ml leptin. Uptake also was measured in cells previously transfected with antisense DNA for PS1 as described (Tezapsidis et al., FASEB J. 17:1322-1324(2003)) (black). Uptake is expressed as the percentage of that observed with Aβ pre-incubated with apoε3 (medium gray) in the absence of leptin (first set of columns). […] Leptin induced a dose-dependent increase in Aβ uptake with a preference for apoε3 (medium gray) over apoε4 (light gray). In panel (b), SY5Y cells were pre-treated with […] cholesterol (+Chol) or normal medium (−Chol). Then Aβ uptake was measured following its preincubation with apoε3 (ε3) or apoε4 (ε4) in the absence (black) or the presence (gray) of about 400 ng/ml leptin. Cells were more resistant to taking-up Aβ when loaded with cholesterol. […] In panel (c), SY5Y cells were transiently transfected with SREBP-1 or SREBP-2 cDNA or an empty vector (Control). Then Aβ was measured in the medium by ELISAs (Figueiredo-Pereira et al., J Neurochem. 72:1417-22 (1999)) following treatment with (+) or without (−) leptin. […] In panel (d), Aβ uptake was measured in SY5Y cells prepared as in panel (c). Uptake was performed using Aβ/apoε3 complexes.
# [2] = test system: transfected Neuro2a cells; test: 125I-Aβ degradation and tracer uptake in culture media during treatments; assay type: cell-based, mouse; conditions: 1 mM 1,10-phenanthroline
# Text: Leptin was almost as efficient as methyl-β-cyclodextrin in lowering Aβ (FIG. 4a, 4b).
# [3] = test system: β-secretase; test: C99/C83 accumulation in SY5Y cells in presence of γ-secretase inhibitors (Western blot); assay type: cell-based, human; conditions: 5 h, with L-685,458 (100 nM) or Z-VL-CHO (100 μM); 10 μM cholesterol or 400 ng/ml leptin alone
# [4] = test system: astrocytes; test: Leptin immunostaining of astrocytes treated with cholesterol; assay type: cell-based, rat; conditions: astrocytes, 0, 5 or 10 μM cholesterol, 5 h
# Description: (§1) Leptin was detected using a rabbit polyclonal antibody raised against mouse leptin, corss-reacting with human leptin (obtained from Dr. A. F. Parlow, Harbor-UCLA, CA). Immunofluorescent confocal microscopy was performed on 2% paraformaldehyde-fixed primary neural cells. Filipin staining was performed as described (Feng et al., Nat Cell Biol. 5:781-92 (2003)).
# (§2) Neural cultures from ε15 rat cerebral cortex were processed for enrichment of neurons (a-d) or astrocytes (e-h) as described (Takeshima et al., J. Neurosci. Methods 67: 27-41 (1996)). After about 7 days to about 10 days in culture, cultures were treated for about 5 h with about 10 μg/ml cholesterol (b, f) or about 400 ng/ml leptin plus cholesterol (c, g) or leptin alone (d, h). Controls (a, e) were treated with culture media alone. Filipin staining was performed as described (Feng et al., Nat. Cell Biol. 5: 781-92 (2003)). Neurons (i-k) and astrocytes (l-n) prepared as above were treated with 0 μM (i, l), 5 μM (j, m) or 10 μM cholesterol (k, n) for 5 h. Immunostaining was performed for leptin (A.F.Parlow, Harbor-UCLA, CA).
# [5] = test system: Neuro2a cells stably transfected with hyg-sa134 (SEAP-APP); test: Aβ production by Neuro2a cells stably transfected with hyg-sa134 (total Aβ in media, sandwich ELISA); assay type: cell-based, mouse; conditions: 5 h; about 400 ng/ml leptin alone or 10 μM water-soluble cholesterol alone; FIG. 4b
# [6] = test system: neurons; test: Leptin immunostaining of neurons treated with cholesterol; assay type: cell-based, rat; conditions: neurons, 0, 5 or 10 μM cholesterol, 5 h
# Description: as §1, §2
SMILES,Aβ degradation during the uptake ([1]; absence of apoE),tracer's uptake by the cells [2],C99 level [3],levels of leptin-like immunoreactivity [4],"apoε3-Aβ taken up compared to controls ([1]; SY5Y cells preloaded with cholesterol/CDX, without leptin, FIG. 5b) [%]",levels of Aβ detected in the media (percentage of corresponding controls) [5] [%],levels of leptin-like immunoreactivity [6]
"c1cnc2c(c1)ccc1cccnc12 [1,10-phenanthroline]",abolished Aβ degradation,did not cause any significant difference,,,,,
CC(C)CCC[C@@H](C)[C@H]1CC[C@H]2[C@@H]3CC=C4C[C@@H](O)CC[C@]4(C)[C@H]3CC[C@]12C [cholesterol],,,increase in C99,enhanced,22±6,205±6,enhanced
